From the supplement of paper PMC10627819

Legend:
S. pneumoniae D39V [1] = test: fitness (endpoint OD595 vs no drug) (fraction); higher = more growth
Procedure, shortened: (§1)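 In 384-well plates at 37 °C, cultures began at OD595 0.01 in 30 µl, with 55 µl used for S. pneumoniae. OD595 readings every 30 min for 14 h were corrected by the first reading. Fitness divides the stationary-phase transition optical density by the robust mean of no-drug control wells. The result is capped at 1.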

B. subtilis 168 [2] = test: as above
Procedure, shortened: as §1

S. pneumoniae D39V [3] = test: Bliss interaction score (quartile over a dose matrix) (fitness difference); higher = more antagonism (negative = synergy)
Procedure, shortened: (§2)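 The Bliss score subtracts expected fitness, the product of the single-drug fitness values, from observed fitness. Fitness is plate-normalised OD595 at entry into stationary phase, relative to the robust no-drug mean and capped at 1, with single-drug fitness inferred from combinations. Summaries are quartiles over technical, biological and donor/recipient replicates.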

B. subtilis 168 [4] = test: as above
Procedure, shortened: as §2

S. aureus Newman = test: as above
Procedure, shortened: as §2

S. aureus DSM 20231 = test: as above
Procedure, shortened: as §2
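Wherever Bliss interaction score (quartile over a dose matrix) is given: first quartile when negative (synergy) and third quartile when positive (antagonism).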

Cc1ncc([N+](=O)[O-])n1CCO [Metronidazole] + CCC(C)C1C(=O)NC(=C)C(=O)NC(C(=O)NC(CSCC(C(=O)N1)NC(=O)/C(=C/C)/NC(=O)C(C(C)CC)N)C(=O)NC2C(SCC(NC(=O)CNC(=O)C3CCCN3C2=O)C(=O)NC(CCCCN)C(=O)NC4C(SCC(NC(=O)CNC(=O)C(NC(=O)C(NC(=O)C(NC(=O)CNC4=O)C)CC(C)C)CCSC)C(=O)NC(CC(=O)N)C(=O)NC(CCSC)C(=O)NC(CCCCN)C(=O)NC5C(SCC6C(=O)NC(C(=O)NC(CSC(C(C(=O)N6)NC(=O)C(NC5=O)C)C)C(=O)NC(CO)C(=O)NC(C(C)CC)C(=O)NC(CC7=CN=CN7)C(=O)NC(C(C)C)C(=O)NC(=C)C(=O)NC(CCCCN)C(=O)O)CC8=CN=CN8)C)C)C)CC(C)C [Nisin]
S. pneumoniae D39V [1], main component drawn
Conditions | fitness
first compound 1.073 µg/mL, partner 3.2 µg/mL | 0.0352
first compound 1.073 µg/mL, partner 6.4 µg/mL | 0.0007
first compound 1.25 µg/mL, partner 0.4275 µg/mL | ≥ 1
first compound 1.25 µg/mL, partner 0.855 µg/mL | ≥ 1
first compound 1.25 µg/mL, partner 1.71 µg/mL | 0.127
first compound 2.145 µg/mL, partner 1.6 µg/mL | 0.809
first compound 2.145 µg/mL, partner 3.2 µg/mL | 0.0201
first compound 2.145 µg/mL, partner 6.4 µg/mL | 0
first compound 2.5 µg/mL, partner 0.4275 µg/mL | ≥ 1
first compound 2.5 µg/mL, partner 0.855 µg/mL | ≥ 1
first compound 2.5 µg/mL, partner 1.71 µg/mL | 0.121
first compound 4.29 µg/mL, partner 1.6 µg/mL | 0.747
first compound 4.29 µg/mL, partner 3.2 µg/mL | 0.0174
first compound 4.29 µg/mL, partner 6.4 µg/mL | 0
first compound 5 µg/mL, partner 0.4275 µg/mL | 0.968
first compound 5 µg/mL, partner 0.855 µg/mL | ≥ 1
first compound 5 µg/mL, partner 1.71 µg/mL | 0.1

fitness, B. subtilis 168 [2], one replicate, main component drawn
Conditions | first compound 0.625 µg/mL | first compound 1.25 µg/mL | first compound 2.5 µg/mL
partner 0.5 µg/mL | 0.831 | 0.806 | 0.795
partner 1 µg/mL | 0.838 | 0.797 | 0.803
partner 1.25 µg/mL | 0.909 | 0.939 | 0.91
partner 1.6 µg/mL | 0.796 | 0.809 | 0.755
partner 2 µg/mL | 0.571 | 0.528 | 0.537
partner 2.5 µg/mL | 0.366 | 0.666 | 0.616
partner 3.2 µg/mL | 0.0225 | 0.03 | 0.0513
partner 4 µg/mL | 0.61 | 0.534 | 0.333
partner 5 µg/mL | 0.0544 | 0.0891 | 0.149
partner 6.4 µg/mL | 0.0311 | 0.0509 | 0.0479
partner 8 µg/mL | 0.0261 | 0.0271 | 0.0234
partner 16 µg/mL | 0.0228 | 0.0235 | 0.015

main component drawn
Conditions | Bliss interaction score
B. subtilis 168 [4] | 0.0914
S. aureus DSM 20231 | 0.153
S. aureus Newman | 0.0893
S. pneumoniae D39V [3] | 0.0647

O=C(O)c1cn(C2CC2)c2cc(N3CCNCC3)c(F)cc2c1=O [Ciprofloxacin] + CC(=O)NC[C@H]1CN(c2ccc(N3CCOCC3)c(F)c2)C(=O)O1 [Linezolid]
Conditions | fitness
B. subtilis 168 [2], first compound 0.0195 µg/mL, partner 0.125 µg/mL | 0.609
B. subtilis 168 [2], first compound 0.0195 µg/mL, partner 0.5 µg/mL | 0.334
B. subtilis 168 [2], first compound 0.039 µg/mL, partner 0.125 µg/mL | 0.394
B. subtilis 168 [2], first compound 0.039 µg/mL, partner 0.5 µg/mL | 0.263
S. pneumoniae D39V [1], first compound 0.125 µg/mL, partner 0.105 µg/mL | 0.788
S. pneumoniae D39V [1], first compound 0.125 µg/mL, partner 0.2 µg/mL | 0.567
S. pneumoniae D39V [1], first compound 0.125 µg/mL, partner 0.21 µg/mL | 0.712
S. pneumoniae D39V [1], first compound 0.125 µg/mL, partner 0.4 µg/mL | 0.298
S. pneumoniae D39V [1], first compound 0.125 µg/mL, partner 0.42 µg/mL | 0.536
S. pneumoniae D39V [1], first compound 0.125 µg/mL, partner 0.8 µg/mL | 0.146
S. pneumoniae D39V [1], first compound 0.25 µg/mL, partner 0.105 µg/mL | 0.776
S. pneumoniae D39V [1], first compound 0.25 µg/mL, partner 0.21 µg/mL | 0.7
S. pneumoniae D39V [1], first compound 0.25 µg/mL, partner 0.42 µg/mL | 0.551
S. pneumoniae D39V [1], first compound 0.5 µg/mL, partner 0.105 µg/mL | 0.61
S. pneumoniae D39V [1], first compound 0.5 µg/mL, partner 0.2 µg/mL | 0.443
S. pneumoniae D39V [1], first compound 0.5 µg/mL, partner 0.21 µg/mL | 0.569
S. pneumoniae D39V [1], first compound 0.5 µg/mL, partner 0.4 µg/mL | 0.252
S. pneumoniae D39V [1], first compound 0.5 µg/mL, partner 0.42 µg/mL | 0.414
S. pneumoniae D39V [1], first compound 0.5 µg/mL, partner 0.8 µg/mL | 0.119

one replicate
Conditions | fitness
B. subtilis 168 [2], first compound 0.0098 µg/mL, partner 0.0625 µg/mL | 0.889
B. subtilis 168 [2], first compound 0.0195 µg/mL, partner 0.0625 µg/mL | 0.856
B. subtilis 168 [2], first compound 0.039 µg/mL, partner 0.0625 µg/mL | 0.417
S. pneumoniae D39V [1], first compound 0.25 µg/mL, partner 0.2 µg/mL | 0.442
S. pneumoniae D39V [1], first compound 0.25 µg/mL, partner 0.4 µg/mL | 0.28
S. pneumoniae D39V [1], first compound 0.25 µg/mL, partner 0.8 µg/mL | 0.154

Conditions | Bliss interaction score
B. subtilis 168 [4] | 0.247
S. aureus DSM 20231 | 0.0785
S. aureus Newman | 0.081
S. pneumoniae D39V [3] | 0.0563

C[C@@H]1O[C@@H]1P(=O)(O)O [Fosfomycin] + CCC(C)C1C(=O)NC(=C)C(=O)NC(C(=O)NC(CSCC(C(=O)N1)NC(=O)/C(=C/C)/NC(=O)C(C(C)CC)N)C(=O)NC2C(SCC(NC(=O)CNC(=O)C3CCCN3C2=O)C(=O)NC(CCCCN)C(=O)NC4C(SCC(NC(=O)CNC(=O)C(NC(=O)C(NC(=O)C(NC(=O)CNC4=O)C)CC(C)C)CCSC)C(=O)NC(CC(=O)N)C(=O)NC(CCSC)C(=O)NC(CCCCN)C(=O)NC5C(SCC6C(=O)NC(C(=O)NC(CSC(C(C(=O)N6)NC(=O)C(NC5=O)C)C)C(=O)NC(CO)C(=O)NC(C(C)CC)C(=O)NC(CC7=CN=CN7)C(=O)NC(C(C)C)C(=O)NC(=C)C(=O)NC(CCCCN)C(=O)O)CC8=CN=CN8)C)C)C)CC(C)C [Nisin]
fitness, main component drawn
Conditions | partner 0.4275 µg/mL | partner 0.5 µg/mL | partner 0.855 µg/mL | partner 1 µg/mL | partner 1.6 µg/mL | partner 1.71 µg/mL | partner 2 µg/mL | partner 3.2 µg/mL | partner 6.4 µg/mL
B. subtilis 168 [2], first compound 1.562 µg/mL | – | 0.712 | – | 0.609 | – | – | 0.45 | – | –
B. subtilis 168 [2], first compound 3.124 µg/mL | – | 0.59 | – | 0.542 | – | – | 0.368 | – | –
B. subtilis 168 [2], first compound 6.248 µg/mL | – | 0.463 | – | 0.397 | – | – | 0.285 | – | –
S. pneumoniae D39V [1], first compound 1.25 µg/mL | ≥ 1 | – | ≥ 1 | – | 0.0178 | 0.0788 | – | 0.0247 | 0.0308
S. pneumoniae D39V [1], first compound 2.5 µg/mL | 0.942 | – | 0.998 | – | 0.0062 | 0.0945 | – | 0.0256 | 0.0213
S. pneumoniae D39V [1], first compound 5 µg/mL | 0.852 | – | 0.889 | – | 0.0119 | 0.111 | – | 0.0102 | 0.0062

fitness, B. subtilis 168 [2], one replicate, main component drawn
Conditions | partner 1.25 µg/mL | partner 1.6 µg/mL | partner 2.5 µg/mL | partner 3.2 µg/mL | partner 4 µg/mL | partner 5 µg/mL | partner 6.4 µg/mL | partner 8 µg/mL | partner 16 µg/mL
first compound 1.562 µg/mL | 0.687 | 0.577 | 0.527 | 0.0483 | 0.0272 | 0.0426 | 0.0336 | 0.0224 | 0.0164
first compound 3.124 µg/mL | 0.613 | 0.469 | 0.303 | 0.024 | 0.0425 | 0.0431 | 0.0247 | 0.0352 | 0.0164
first compound 6.248 µg/mL | 0.513 | 0.298 | 0.127 | 0.0136 | 0.0038 | 0.0232 | 0.0329 | 0.007 | 0.0049

main component drawn
Conditions | Bliss interaction score
B. subtilis 168 [4] | -0.0482
S. aureus DSM 20231 | 0.0654
S. aureus Newman | -0.0541
S. pneumoniae D39V [3] | -0.0374
